The text below walks through data of US20150087613A1, “Inhibition of Opioid Antinociceptive Tolerance and Withdrawal in Nociceptive Pain Therapy” (Saint Louis University, priority 2013, published 2015).

SMILES strings stand for the structures. Read-outs that look alike come from different tables or passages of the source.

Experiment [1] has as its target T1, A3AR (Mus musculus, UniProt Q61618).
T1 construct: expressed in transfected cells
T1 sequence (Q61618 1-319): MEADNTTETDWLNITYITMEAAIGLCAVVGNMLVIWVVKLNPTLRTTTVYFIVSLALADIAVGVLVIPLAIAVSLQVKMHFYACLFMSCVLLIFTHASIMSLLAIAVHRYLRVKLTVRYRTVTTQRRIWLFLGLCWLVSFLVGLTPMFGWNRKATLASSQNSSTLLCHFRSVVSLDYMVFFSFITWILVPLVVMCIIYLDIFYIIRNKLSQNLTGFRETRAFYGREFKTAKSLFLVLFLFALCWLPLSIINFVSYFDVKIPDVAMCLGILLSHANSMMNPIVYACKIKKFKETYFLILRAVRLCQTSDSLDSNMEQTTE
Nature of the experiment: Radioligand binding, membranes of HEK293 cells stably expressing mA3AR. The settings on record: species m; n 3-4; read-out: affinity (KV nM) A3.

Experiment [2] addresses T2, A2AAR (Mus musculus, UniProt Q60613).
T2 construct: expressed in transfected cells
Put plainly: Radioligand binding, membranes of HEK293 cells stably expressing mA2AAR. As to conditions: read-out: % inhibition A2A.

In experiment [3] the target is T3, A1AR (Mus musculus, UniProt Q60612).
T3 construct: expressed in transfected cells
T3 sequence (Q60612 1-326): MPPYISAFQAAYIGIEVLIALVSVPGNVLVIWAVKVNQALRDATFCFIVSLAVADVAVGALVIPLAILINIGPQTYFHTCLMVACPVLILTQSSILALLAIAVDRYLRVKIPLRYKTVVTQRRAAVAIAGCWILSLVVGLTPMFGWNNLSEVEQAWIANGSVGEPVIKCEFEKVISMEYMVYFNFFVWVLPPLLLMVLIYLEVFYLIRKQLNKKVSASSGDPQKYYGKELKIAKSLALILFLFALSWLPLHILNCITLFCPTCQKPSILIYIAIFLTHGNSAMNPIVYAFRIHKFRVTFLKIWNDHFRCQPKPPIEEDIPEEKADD
Nature of the experiment: Radioligand binding, membranes of HEK293 cells stably expressing mA1AR. As to conditions: for inhibition at 10 µM: read-out: % inhibition A1; for Ki: species m, n 3-4, read-out: affinity (KV nM) A1.

Experiment [4] addresses T4, hA3AR (Homo sapiens, UniProt P0DMS8).
T4 construct: expressed in transfected cells
T4 sequence (P0DMS8 1-318): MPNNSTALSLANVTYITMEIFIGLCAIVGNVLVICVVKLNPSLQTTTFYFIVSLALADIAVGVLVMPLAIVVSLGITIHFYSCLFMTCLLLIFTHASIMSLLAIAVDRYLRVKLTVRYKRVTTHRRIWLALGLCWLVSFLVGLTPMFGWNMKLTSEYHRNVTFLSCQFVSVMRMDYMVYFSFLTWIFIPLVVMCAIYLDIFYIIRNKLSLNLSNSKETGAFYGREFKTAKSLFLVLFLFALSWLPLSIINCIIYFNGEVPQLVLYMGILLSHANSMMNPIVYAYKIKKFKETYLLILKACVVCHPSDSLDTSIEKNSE
Put plainly: cAMP assay, inhibition of forskolin-stimulated cAMP in hA3AR-transfected CHO cells. Format: cell-based. The settings on record: for Emax at 10 µM: CHO, read-out: % efficacy, A3. On the technique in general: Cyclic AMP is a second messenger, typically raised through Gs and lowered through Gi signalling.

Experiment [5] has as its target T5, A1AR (Homo sapiens, UniProt P30542).
T5 construct: expressed in transfected cells
T5 sequence (P30542 1-326): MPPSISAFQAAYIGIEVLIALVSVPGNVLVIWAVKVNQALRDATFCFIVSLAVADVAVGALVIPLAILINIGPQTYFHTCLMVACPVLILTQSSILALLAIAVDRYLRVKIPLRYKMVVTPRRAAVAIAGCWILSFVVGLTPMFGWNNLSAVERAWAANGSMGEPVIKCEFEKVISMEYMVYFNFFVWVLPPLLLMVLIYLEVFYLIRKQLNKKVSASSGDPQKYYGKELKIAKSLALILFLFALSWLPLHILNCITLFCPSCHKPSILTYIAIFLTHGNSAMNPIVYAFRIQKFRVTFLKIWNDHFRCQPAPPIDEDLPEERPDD
The settings on record: species h; inhibition of binding at 10 μM; tested in ref 26; cited from earlier work.

For experiment [6], the target named is T6, A2AAR (Homo sapiens, UniProt P29274).
T6 construct: expressed in transfected cells
T6 sequence (P29274 whole entry): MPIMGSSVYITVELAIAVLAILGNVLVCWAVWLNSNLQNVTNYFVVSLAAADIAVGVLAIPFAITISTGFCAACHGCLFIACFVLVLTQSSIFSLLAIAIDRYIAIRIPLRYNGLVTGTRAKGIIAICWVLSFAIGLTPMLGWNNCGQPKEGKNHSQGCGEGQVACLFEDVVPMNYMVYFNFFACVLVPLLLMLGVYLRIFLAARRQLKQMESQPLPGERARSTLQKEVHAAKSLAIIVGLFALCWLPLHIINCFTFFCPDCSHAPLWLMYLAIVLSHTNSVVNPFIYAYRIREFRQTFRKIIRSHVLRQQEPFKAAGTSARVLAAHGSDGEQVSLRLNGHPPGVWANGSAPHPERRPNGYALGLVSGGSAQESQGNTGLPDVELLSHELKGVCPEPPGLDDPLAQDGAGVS
Put plainly: Radioligand binding, membranes of HEK293 cells stably expressing hA2AAR. The settings on record: read-out: % inhibition A2A.

Experiment [7] concerns the target T7, A3AR (Homo sapiens, UniProt P0DMS8).
T7 construct: expressed in transfected cells
T7 sequence (P0DMS8 1-318): T4 sequence (P0DMS8 1-318)
Nature of the experiment: Radioligand binding, membranes of CHO cells stably expressing hA3AR. As to conditions: species h; agonist radioligand 42; n 3-4; read-out: affinity (KV nM) A3.

The target of experiment [8] is T8, mA3AR (Mus musculus, UniProt Q61618).
T8 construct: expressed in transfected cells
T8 sequence (Q61618 1-319): T1 sequence (Q61618 1-319)
Put plainly: cAMP assay, inhibition of forskolin-stimulated cAMP in mA3AR-transfected HEK cells. The format is cell-based. The settings on record: HEK293; read-out: % efficacy, A3.

The target in experiment [9] is T5, A1AR. Put plainly: Radioligand binding, membranes of CHO cells stably expressing hA1AR. The settings on record: for inhibition at 10 µM: read-out: % inhibition A1.
Experiment [10] concerns the target T6, A2AAR. The settings on record: species h, tested in ref 26, cited from earlier work; for % inhibition A2A: inhibition of binding at 10 μM; for Ki: agonist radioligand 41, read-out: affinity (KV nM) A2A.
Experiment [11] concerns the target T7, A3AR. As to conditions: species h; agonist radioligand 42; tested in ref 26; read-out: affinity (KV nM) A3; cited from earlier work.
In experiment [12] the test system is Male Sprague Dawley rats. Nature of the experiment: Rat morphine antinociceptive tolerance study (osmotic minipump, tail flick test). The format is in vivo.
Description: Minipumps were filled according to manufacturer's specifications. The use of the osmotic pump ensures a continuous subcutaneously delivery of morphine avoiding intermittent periods of withdrawal. […] The integrity of the pump delivery system was reexamined at the end of each experiment when the spinal cords are harvested.
(§1) Test substances or vehicle were given on day 0 through 6 after completion of the behavioral tests.
For experiment [13], the system named is Male Sprague Dawley rats. Nature of the experiment: Acute antinociceptive interaction with acute morphine (tail flick). The format is in vivo, rat. The settings on record: morphine 3 mg/kg i.p., at 30 min.
Description: as §1

T2 sequence (Q60613 whole entry): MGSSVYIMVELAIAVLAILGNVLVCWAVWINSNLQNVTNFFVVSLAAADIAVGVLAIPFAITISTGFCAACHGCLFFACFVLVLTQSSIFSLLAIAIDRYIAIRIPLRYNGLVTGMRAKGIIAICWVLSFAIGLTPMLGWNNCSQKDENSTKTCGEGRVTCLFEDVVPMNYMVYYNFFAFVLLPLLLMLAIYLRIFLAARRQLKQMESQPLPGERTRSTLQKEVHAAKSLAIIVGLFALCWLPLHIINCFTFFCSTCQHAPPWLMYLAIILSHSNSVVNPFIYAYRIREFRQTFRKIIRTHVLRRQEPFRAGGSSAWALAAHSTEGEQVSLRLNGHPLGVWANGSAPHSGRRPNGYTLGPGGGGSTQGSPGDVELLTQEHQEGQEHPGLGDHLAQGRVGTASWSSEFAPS

For `CNC(=O)[C@@]12C[C@@H]1[C@@H](n1cnc3c(NCc4cccc(Cl)c4)nc(C#Cc4ccccc4)nc31)[C@H](O)[C@@H]2O` [Compound 5], the Ki in experiment [1] is 1.23 ± 0.14 nM. The inhibition at 10 µM amounted to 2% in experiment [2] and 50% in experiment [3]. For the same compound, the “% efficacy, A3” value in experiment [4] (species h, percentage of maximal effect of 5′-N-ethylcarboxamidoadenosine 43, each at 10 μM, mean ± SEM) came out at 101 ± 5.9%. The “% inhibition A1” value in experiment [5] is recorded as “(20% ± 3%)”.
Take `CNC(=O)[C@@]12C[C@@H]1[C@@H](n1cnc3c(NCc4cccc(Cl)c4)nc(C#Cc4ccc(S(=O)(=O)O)cc4)nc31)[C@H](O)[C@@H]2O` [Compound 6]: the Ki was 9.68 ± 0.15 nM in [1]; 35.1 ± 5.5 nM in [3]; 11.1 ± 1.6 nM in experiment [7]; 383 ± 75 nM in experiment [9] (species h, agonist radioligand 40, n 3-4, read-out: affinity (KV nM) A1). For the same compound, the inhibition at 10 µM in experiment [2] stood at 14%; in [6], 23%. Besides, in experiment [4], the Emax at 10 µM stood at 96.8 ± 5.7%. In addition, in [8], the Emax turned out to be 95.7 ± 19.1%.
As for `CNC(=O)[C@@]12C[C@@H]1[C@@H](n1cnc3c(NCc4cccc(Cl)c4)nc(C#Cc4cccc(S(=O)(=O)O)c4)nc31)[C@H](O)[C@@H]2O` [Compound 7], the Ki was 11.3 ± 1.9 nM in [1] and 1.9 ± 0.03 nM in [7]. The inhibition at 10 µM worked out at 1% in experiment [2], 15% in experiment [3], 7% in experiment [6] and 16% in experiment [9]. In addition, in experiment [4], the Emax at 10 µM came to 98.2 ± 6.7%. Besides, in experiment [8], the Emax stood at 89.3 ± 7.1%.
On to `CNc1nc(C#Cc2ccccc2)nc2c1ncn2[C@H]1[C@H](O)[C@H](O)[C@@H]2C[C@@H]21` [Compound 8], for which the Ki in experiment [1] was found to be 1530 ± 240 nM; in experiment [3] it was 3800 ± 780 nM. The inhibition at 10 µM in experiment [2] is 8%. In [4], the Emax at 10 µM was determined as 12.6 ± 4%. In addition, the “% inhibition A1” value in experiment [5] is listed as “(18% ± 1%)”. In experiment [10], the “% inhibition A2A” value is “(18% ± 3%)”.
With `CCNc1nc(C#Cc2ccccc2)nc2c1ncn2[C@H]1[C@H](O)[C@H](O)[C@@H]2C[C@@H]21` [Compound 9], the Ki in experiment [1] amounted to 1480 ± 170 nM. Moreover, the inhibition at 10 µM in experiment [2] and in experiment [3] was 49% each time. The Emax at 10 µM in experiment [4] was 0.8 ± 5.2%. Moreover, the “% inhibition A1” value in experiment [5] is “(36% ± 4%)”. Besides, the “% inhibition A2A” value in experiment [10] is “(42% ± 4%)”.
For the compound `CCNc1nc(C#Cc2ccccc2Cl)nc2c1ncn2C1C(O)C(O)C2CC21` (centres unmarked) [Compound 10], in [4], the Emax at 10 µM was 7 ± 5.2%. Further, in experiment [11], the Ki is 5.8 ± 2.08 nM. Also, the “% inhibition A1” value in experiment [5] is reported as “(25% ± 11%)”. Moreover, the “% inhibition A2A” value in [10] is given as “(17% ± 6%)”.
With `OC1C(O)C(n2cnc3c(NCc4cccc(Cl)c4)nc(C#Cc4ccccc4)nc32)C2CC12` (centres unmarked) [Compound 11], the Emax at 10 µM in experiment [4] amounted to 13.8 ± 5.1%. Also, the Ki in [10] was 680 ± 170 nM.
Turning to `OC1C(O)C(n2cnc3c(NCc4cccc(Cl)c4)nc(C#Cc4cccc(Cl)c4)nc32)C2CC12` (centres unmarked) [Compound 12], in experiment [10], the Ki is 1800 ± 310 nM.
In the case of `O[C@@H]1[C@H](O)[C@@H]2C[C@@H]2[C@H]1n1cnc2c(NCc3cccc(Cl)c3)nc(C#Cc3ccc(-c4ccccc4)cc3)nc21` [Compound 13], the Ki in experiment [1] is 255 ± 77 nM; in [3] it was 1110 ± 220 nM. Further, the inhibition at 10 µM in experiment [2] is 0%. The Emax at 10 µM in experiment [4] was determined as 3.5 ± 3.2%. The “% inhibition A1” value in experiment [5] was “(48% ± 4%)”. Besides, in [10], the “% inhibition A2A” value was “(12% ± 7%)”.
As for `O[C@@H]1[C@H](O)[C@@H]2C[C@@H]2[C@H]1n1cnc2c(NCCc3ccccc3)nc(C#Cc3ccccc3)nc21` [Compound 14], in experiment [4], the Emax at 10 µM was found to be 4.1 ± 1.2%. Further, the “% inhibition A1” value in experiment [5] is recorded as “(30% ± 8%)”. For the same compound, the “% inhibition A2A” value in [10] is given as “(22% ± 5%)”.
As to `OC1C(O)C(n2cnc3c(NCC(c4ccccc4)c4ccccc4)nc(C#Cc4ccccc4Cl)nc32)C2CC12` (centres unmarked) [Compound 15], the Emax at 10 µM in experiment [4] was found to be 2.6 ± 1.3%. For the same compound, in experiment [11], the Ki is 140 ± 30 nM. Besides, in [5], the “% inhibition A1” value is reported as “(26% ± 4%)”. Further, in experiment [10], the “% inhibition A2A” value was “(22% ± 2%)”.
With `O=S(=O)(O)c1ccc(CCNc2nc(C#Cc3ccccc3)nc3c2ncn3[C@H]2[C@H](O)[C@H](O)[C@@H]3C[C@@H]32)cc1` [Compound 16], the values for the Ki in [1] and in [7] were 3920 ± 1190 nM and 30.2 ± 4.3 nM, respectively. Moreover, the inhibition at 10 µM in experiment [2] came to 1%; in experiment [3], 18%; in experiment [6] it was 15%; in experiment [9], 10%. The Emax at 10 µM in experiment [4] stood at 7.2%.
Regarding `CNC(=O)[C@@]12C[C@@H]1[C@@H](n1cnc3c(NCCc4ccccc4)nc(C#Cc4ccccc4)nc31)[C@H](O)[C@@H]2O` [Compound 17], the Ki in experiment [1] stood at 8.75 ± 2.12 nM; in experiment [7], 1.23 ± 0.57 nM. The inhibition at 10 µM in experiment [2] was determined as 1%; in experiment [3], 25%; in experiment [6] it was 32%; in experiment [9], 11%. Also, the Emax at 10 µM in [4] was 105 ± 9.8%. Besides, in experiment [8], the Emax worked out at 115 ± 14.6%.
Take `CN1CC[C@]23c4c5ccc(O)c4O[C@H]2[C@@H](O)C=C[C@H]3[C@H]1C5` [morphine]: in [12] (morphine 75 μg/μl/h s.c. by osmotic minipump), the “analgesia at 2 hr following minipump implant” value was “approximately 100 % analgesia”. Besides, in [12] (s.c. infusion over 7 days (Veh-Mor, n=2) vs saline infusion, P<0.001, day 3 and 6), the “development of antinociceptive tolerance on chronic morphine infusion” value was “led to the development of antinociceptive tolerance”. Further, the “antinociception after acute morphine alone” value in experiment [13] was 40±2 % antinociception.

As usually defined, the inhibition is the relative decrease from the control value, in per cent.
